Assay [1] concerns HEK293. In words: cells. The assay is classed as functional, cell-based. To be noted: Homo sapiens.
Assay [2] deals with Nucleotide-binding oligomerization domain-containing protein 2 (Homo sapiens, UniProt Q9HC29). In words: inhibition of NOD2-driven NF-kB reporter – cell-based, luminescence, uHTS, HEK293 (AID 1566). The assay is classed as functional.
In assay [3] the test system is HEK293. In words: inhibition of NOD1-driven NF-kB reporter – cell-based, luminescence, uHTS, primary screen (AID 1578). It counts as functional. To be noted: Homo sapiens.
Assay [4] concerns HEK293. In words: NOD2 signaling inhibitors in MDP-stimulated cells, cell-based, uHTS, luminescence (AID 2001). It counts as functional. To be noted: Homo sapiens.
Assay [5] relates to HEK293. In words: cells. It counts as functional, cell-based. To be noted: Homo sapiens. The source holds these as a separate data set.
In assay [6] the test system is HEK293. In words: cells. The assay is classed as functional, cell-based. To be noted: Homo sapiens. This is another data set of the same source.
Assay [7] in a line: HEK-293T cell viability reduction – luminescence, B-cell screen hits, cytotoxicity control for BCR NF-kB inhibitor project, dose response (AID 489021).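 Further: HEK-293T cells carrying an NF-kB luciferase reporter; cells exposed to compound for about 14 hours before viability readout.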 It counts as functional, cell-based.
The target of assay [8] is T1, Ubiquitin-conjugating enzyme E2 N (Homo sapiens, UniProt P61088).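 Further: Dose-response confirmation in a TR-FRET assay detecting UBC13-driven polyubiquitin chain formation, inhibition measured.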
T1 sequence (P61088 whole entry): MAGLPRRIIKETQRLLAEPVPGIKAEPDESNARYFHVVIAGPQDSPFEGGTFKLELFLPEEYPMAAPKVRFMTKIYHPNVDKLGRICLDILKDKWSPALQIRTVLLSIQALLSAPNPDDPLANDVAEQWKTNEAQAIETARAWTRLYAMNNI
It counts as functional.

Another assay has as its target Cytochrome P450 3A4 (Homo sapiens, UniProt P08684). Conditions: Potency.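 Further: confirmatory qHTS run detecting inhibitors and substrates of CYP3A4.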
The target of the next assay is Estrogen receptor beta (Homo sapiens, UniProt Q92731). In words: blockers of SRC-3 recruitment to ERβ – biochemical, ELISA, streptavidin-HRP readout, orthogonal assay, confirmation (AID 1060).
Assay [9] concerns BJ. In words: BJ-TERT-LT-ST fibroblast viability loss – cell-based, RAS-independent, luminescence, dose response (AID 1935).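 Further: BJ fibroblasts immortalized with TERT plus LT and ST oncogenes.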 It counts as functional. Conditions: Homo sapiens.
Assay [10] relates to BJ. In words: BJ-TERT fibroblast viability loss – cell-based, RAS-independent, luminescence, dose response (AID 1933). The assay is classed as functional. Conditions: Homo sapiens.
Assay [11] in a line: DRD fibroblast viability loss – cell-based, non-viral oncogenic, luminescence, dose response (AID 1934). The assay is classed as functional. Conditions: Homo sapiens.
Assay [12] deals with G-protein coupled receptor 55 (Homo sapiens, UniProt Q9Y2T6). In words: selective activators of receptor GPR55 – imaging, U2OS cells, beta-arrestin-GFP redistribution, primary screen (AID 1961). The assay is classed as functional.
Assay [13] can be described thus: viability loss in Vero cells – cytotoxicity control for Vif-APOBEC3G degradation inhibitor project, dose response (AID 1117358). The assay is classed as functional. To be noted: Vero.
Assay [14] deals with BJ. In words: cells. To be noted: Homo sapiens. It counts as functional, cell-based.
Assay [15] has as its system BJ. In words: growth inhibition of engineered Ras-driven BJ cells – cell-based, alamar blue fluorescence, cherrypicked samples, dose response (AID 2631).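 Further: confirmatory dose-response assay in RAS-dependent BJ fibroblasts engineered with TERT, LT and ST, with cytotoxicity read by fluorescence.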 It counts as functional. To be noted: Homo sapiens.
A short description of assay [16]: toxicity toward HepG2 liver cells – cell-based, plate reader, cherry-pick, antagonist series, cytotoxicity control, dose response (AID 743416). The assay is classed as functional.
Assay [17] is described as follows: HIV-1 Vif–A3G interaction blockers – biochemical, TR-FRET, GST-Vif 1-94, biotin-A3G peptide, dose response retest, primary screen (AID 1117319).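 Further: TR-FRET signal of purified GST-Vif binding a biotinylated A3G peptide; inhibitors lower the FRET signal by blocking Vif and A3G binding.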 The assay is classed as functional.
A short description of assay [18]: blockade of melanocortin 4 receptor signaling – cell-based, plate reader, cherry pick, counter-screen for LGR2 antagonist project, dose response (AID 743444).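 Further: transfected HEK 293 cells stimulated with alpha-MSH peptide; potency of inhibitors of the alpha-MSH evoked signal.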 It counts as functional.
The nature of assay [19]: viability loss in HEK293 cells – cell-based, plate reader, cherry-picked samples, cytotoxicity control, dose response (AID 743446). It counts as functional.
A short description of assay [20]: A549 cell cytotoxicity, dose response, cytotoxicity control, plate reader, cherry-pick, antagonist series (AID 743412). It counts as functional, cell-based.
Assay [21] can be described thus: blockers of bursicon-stimulated LGR2 cAMP reporter – cell-based, HEK293, CRE-luciferase reporter, cherry pick, set 2, dose response (AID 743343).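 Further: transfected cells were stimulated with diluted bursicon conditioned medium after compound addition.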 It counts as functional.

Activity calls are given as the source filed them.

Chain of Cytochrome P450 3A4 (P08684 whole entry): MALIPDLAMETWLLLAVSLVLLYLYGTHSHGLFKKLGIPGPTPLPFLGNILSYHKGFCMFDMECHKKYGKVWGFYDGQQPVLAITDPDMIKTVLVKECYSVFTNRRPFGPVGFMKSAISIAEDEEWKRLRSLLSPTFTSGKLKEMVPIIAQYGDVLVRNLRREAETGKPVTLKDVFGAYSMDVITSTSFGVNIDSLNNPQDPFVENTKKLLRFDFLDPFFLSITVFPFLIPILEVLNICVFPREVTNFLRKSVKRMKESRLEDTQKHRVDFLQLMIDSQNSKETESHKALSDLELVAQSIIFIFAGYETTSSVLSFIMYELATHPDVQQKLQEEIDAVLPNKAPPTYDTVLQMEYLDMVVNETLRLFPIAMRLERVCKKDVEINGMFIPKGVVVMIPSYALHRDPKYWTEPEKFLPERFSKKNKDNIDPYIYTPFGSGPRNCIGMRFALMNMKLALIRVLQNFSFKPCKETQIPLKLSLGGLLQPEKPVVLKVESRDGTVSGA
Chain of Nucleotide-binding oligomerization domain-containing protein 2 (Q9HC29 whole entry, the tested form may be a part): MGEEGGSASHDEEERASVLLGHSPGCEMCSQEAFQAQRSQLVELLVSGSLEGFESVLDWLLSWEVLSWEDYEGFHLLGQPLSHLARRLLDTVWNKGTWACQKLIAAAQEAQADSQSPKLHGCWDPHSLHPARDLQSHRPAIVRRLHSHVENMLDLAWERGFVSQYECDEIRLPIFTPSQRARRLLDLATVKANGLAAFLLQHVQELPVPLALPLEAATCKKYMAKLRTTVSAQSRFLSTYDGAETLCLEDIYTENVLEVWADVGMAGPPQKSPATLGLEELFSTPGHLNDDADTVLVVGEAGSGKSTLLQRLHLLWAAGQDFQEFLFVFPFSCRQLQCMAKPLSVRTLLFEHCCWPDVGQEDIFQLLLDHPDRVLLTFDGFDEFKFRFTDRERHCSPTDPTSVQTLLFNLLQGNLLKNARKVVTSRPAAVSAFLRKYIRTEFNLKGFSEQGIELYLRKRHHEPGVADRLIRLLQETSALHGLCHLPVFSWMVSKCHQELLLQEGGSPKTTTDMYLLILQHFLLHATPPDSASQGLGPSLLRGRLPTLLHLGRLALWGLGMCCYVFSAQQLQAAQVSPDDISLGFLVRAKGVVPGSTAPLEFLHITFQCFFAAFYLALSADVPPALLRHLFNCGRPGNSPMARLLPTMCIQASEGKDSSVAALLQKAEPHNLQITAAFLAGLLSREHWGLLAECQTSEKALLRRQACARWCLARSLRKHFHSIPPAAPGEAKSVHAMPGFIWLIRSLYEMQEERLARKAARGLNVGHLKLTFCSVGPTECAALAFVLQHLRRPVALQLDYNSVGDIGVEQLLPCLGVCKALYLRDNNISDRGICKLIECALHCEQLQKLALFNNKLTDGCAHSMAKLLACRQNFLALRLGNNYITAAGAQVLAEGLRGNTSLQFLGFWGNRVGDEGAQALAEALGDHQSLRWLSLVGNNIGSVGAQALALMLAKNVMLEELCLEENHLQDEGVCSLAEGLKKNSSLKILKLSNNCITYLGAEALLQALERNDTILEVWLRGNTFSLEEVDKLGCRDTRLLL
Chain of Estrogen receptor beta (Q92731 whole entry): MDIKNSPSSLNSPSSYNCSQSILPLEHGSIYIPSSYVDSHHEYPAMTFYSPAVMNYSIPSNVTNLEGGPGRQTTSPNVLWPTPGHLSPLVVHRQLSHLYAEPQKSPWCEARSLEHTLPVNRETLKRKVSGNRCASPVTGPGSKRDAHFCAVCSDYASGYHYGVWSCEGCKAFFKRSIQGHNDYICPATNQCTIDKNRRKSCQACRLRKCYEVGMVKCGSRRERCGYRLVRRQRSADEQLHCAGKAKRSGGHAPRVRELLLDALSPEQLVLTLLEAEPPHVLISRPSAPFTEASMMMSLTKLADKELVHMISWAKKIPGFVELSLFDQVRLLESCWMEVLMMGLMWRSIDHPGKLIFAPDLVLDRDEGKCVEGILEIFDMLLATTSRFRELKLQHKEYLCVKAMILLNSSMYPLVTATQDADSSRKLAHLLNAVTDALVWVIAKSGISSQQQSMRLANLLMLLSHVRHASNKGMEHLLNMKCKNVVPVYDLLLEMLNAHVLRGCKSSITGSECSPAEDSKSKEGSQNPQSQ
Chain of G-protein coupled receptor 55 (Q9Y2T6 whole entry): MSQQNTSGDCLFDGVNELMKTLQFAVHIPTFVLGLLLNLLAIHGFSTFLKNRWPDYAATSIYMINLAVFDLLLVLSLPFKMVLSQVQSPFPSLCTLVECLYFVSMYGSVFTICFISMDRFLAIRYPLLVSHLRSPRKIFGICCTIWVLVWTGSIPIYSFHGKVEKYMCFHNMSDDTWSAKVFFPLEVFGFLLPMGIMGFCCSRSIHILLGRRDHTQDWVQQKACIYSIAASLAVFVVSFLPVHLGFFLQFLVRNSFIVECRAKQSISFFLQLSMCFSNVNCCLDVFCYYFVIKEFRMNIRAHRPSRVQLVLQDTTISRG

On to `COc1ccc(C)cc1NC(=O)c1sc2ncnc(N3CCN(c4ccccn4)CC3)c2c1C`, for which the IC50 in the assay with HEK293 [1], with HEK293 [4], with HEK293 [5] and in the assay on HEK293 [6] was > 20 µM (inactive) in each case. In addition, the EC50 (in assay [2]; with HEK293 [3]) was > 20 µM (inactive) throughout.
With `CCn1c(S)nc2cc(S(=O)(=O)N3CCCCC3)ccc21`, the IC50 in assay [7] was > 80 µM (inactive).
Consider `Cc1sc2ncnc(N)c2c1C`, for which the IC50 in assay [8] was > 20 µM (inactive).
Still for that read-out and setting: the figure for `COc1ccnc2c1c(=O)n(Cc1ccc(F)cc1)c(=O)n2C` is > 20 µM (inactive).
`COC(=O)c1c(C)cc(OC)cc1O`: the AC50 at Cytochrome P450 3A4 is 39.8 µM (inconclusive).
For the compound `O=C(Nc1ccc2c(c1)OCO2)c1cc2ncc(Br)cn2n1`, the IC50 against Estrogen receptor beta was < 0.023 µM (not active).
Regarding `COc1ccccc1-n1cnc2cc(NCc3cccs3)ccc21`, the concentration for a half-maximal effect (EC50) in the assay on BJ [9] is 11 µM (inconclusive); in the assay on BJ [10] it was 8.39 µM (inconclusive); in assay [11], 4.55 µM (active); in [12], 2.87 µM (active); in the assay on BJ [14], 20.5 µM (active); in the assay on BJ [15], 0.248 µM (active). Besides, the CC50 in assay [13] is > 40 µM (active).
`FC(F)(F)c1ccc(C2[C@H]3CN(Cc4ccc(-c5ccccc5)cc4)[C@H](c4ccccc4)C34CC2(c2cccnc2)C4)cc1` (stereo partly specified): at Cytochrome P450 3A4, the AC50 is 15.8 µM (inconclusive).
Turning to `COc1cc(C(=O)Oc2cccc(Nc3ncnc4ccccc34)c2)cc(OC)c1OC`, the AC50 in assay [16] was > 52 µM (inactive); in assay [18], 17.7 µM (active); in assay [19], > 52 µM (inactive); in assay [20], 51.4 µM (active); in [21] it was 14.1 µM (active). Besides, the IC50 in assay [17] was > 100 µM (active). For the same compound, the CC50 in [13] was 35.2 µM (active).

(Values after ChEMBL document CHEMBL1201862, “PubChem BioAssay data set” (2004).)
